Test results reported in PMC12096669, “Structural isomerisation affects the antitubercular activity of adamantyl-isoxyl adducts” (Journal of Enzyme Inhibition and Medicinal Chemistry, 2025).
In brackets after ≈: the same amount, converted by molar mass. Like-named read-outs stand apart in the source and are kept apart here.

Experiments:
Assay type in all cases: cell-based
[1] = tested on: E. cloacae NCTC 10005; test: Non-mycobacterial REMA assay; settings: Enterobacter cloacae, NCTC10005, read-out: Minimum inhibitory concentration 95%
[2] = tested on: S. agalactiae NCTC 8181; test: Non-mycobacterial REMA assay; settings: Streptococcus agalactiae, NCTC8181, read-out: Minimum inhibitory concentration 95%
[3] = tested on: A. baumannii NCTC 12156; test: Non-mycobacterial REMA assay; settings: Acinetobacter baumannii, NCTC12156, read-out: Minimum inhibitory concentration 95%
[4] = tested on: K. pneumoniae NCTC 9633; test: Non-mycobacterial REMA assay; settings: Klebsiella pneumoniae, NCTC9633, read-out: Minimum inhibitory concentration 95%
[5] = tested on: E. coli K12; test: Non-mycobacterial REMA assay; settings: Escherichia coli, read-out: Minimum inhibitory concentration 95%
Description: (§1) Bacterial minimum inhibition concentrations (MIC) were determined using the Resazurin Microtiter Assay (REMA) method according to Palomino et al.[28] Stock solutions of the tested compounds were prepared in sterile dimethyl sulfoxide (DMSO), then diluted in 7H9OPALPen^1Cyc^10(Kan^25) to obtain a final drug concentration range of 32–0.032 μg/mL. A suspension of the test Mycobacterium was cultured in 7H9OPALPen^1Cyc^10(Kan^25) containing 0.05% v/v Tween^80 for one week at 37 °C, 5% CO2. The bacterial suspension was adjusted to 0.5 McFarland and diluted in 7H9OPALPen^1Cyc^10(Kan^25) 1:25. 100 μL of the inoculum was added to each well of a 96-well microplate together with 100 μL of the compound titration. The plate was incubated at 37 °C, 5% CO2. After 5 days, 10.5 μL 0.1% (w/v) sterile resazurin (solubilised in sterile PBS containing 0.02% v/v Tween^80) was added. Reduced resazurin was detected using fluorescence (Ex/Em 530/590 nm) in a FLUOstar Optima, BMG Labtech. All titre measurements were plotted in SigmaPlot™ and 4-parameter logistic (4PL) model regressions conducted. The relative MIC95 of each curve was calculated and averaged (Table 1). Testing was performed in duplicate with two independent biological repeats. […] Though, for these cultures, dilutions were performed at 1:125 prior to inoculation of the plate and incubation for 4 h (Supplementary Table 3). Known antitubercular agents used in this study were rifampicin (RIF), isoniazid (INH), ISO, EMB, ethionamide (ETH), linezolid (LZD), delamanid (DEL) and moxifloxacin (MOX).

[6] = tested on: S. enterica NCTC 6754; test: Non-mycobacterial REMA assay; settings: Salmonella enterica, NCTC6754, read-out: Minimum inhibitory concentration 95%
Description: as §1

[7] = tested on: S. aureus NCTC 2981; test: Non-mycobacterial REMA assay; settings: Staphylococcus aureus, NCTC2981, read-out: Minimum inhibitory concentration 95%
[8] = tested on: B. cereus NCTC 7464; test: Non-mycobacterial REMA assay; settings: Bacillus cereus, NCTC7464, read-out: Minimum inhibitory concentration 95%
[9] = tested on: HepG2 human liver cancer cell line; test: MTS cytotoxicity assay, liver cells; settings: 96 h, read-out: MTS percentage survival @ 100 µM
[10] = tested on: AC10 hybrid adult ventricular cardiomyocytes; test: MTS cytotoxicity assay, cardiomyocytes; settings: Homo sapiens, AC10 cardiac, 96 h, read-out: MTS percentage survival @ 100 µM
[11] = tested on: E. faecalis NCTC 775; test: Non-mycobacterial REMA assay; settings: Enterococcus faecalis, NCTC775, read-out: Minimum inhibitory concentration 95%
[12] = tested on: P. aeruginosa DSM 19880; test: Non-mycobacterial REMA assay; settings: Pseudomonas aeruginosa, DSM19880, read-out: Minimum inhibitory concentration 95%
[13] = tested on: RAW264.7 murine macrophage cells; test: cells; settings: for viability at 100 µM / IC50: Mus musculus; for viability at 100 µM: RAW264.7, 96 h, read-out: MTS percentage survival @ 100 µM; for IC50: RAW264.7 macrophages, 0 to 100 µM, read-out: IC50 (cell viability, MTS assay)
[14] = tested on: Mtb mc^27902 pMV261; test: microbe, parasite or virus in culture; settings: Mycobacterium tuberculosis
[15] = tested on: E. faecium NCTC 7171; test: Non-mycobacterial REMA assay; settings: Enterococcus faecium, NCTC7171, read-out: Minimum inhibitory concentration 95%
[16] = tested on: S. pyogenes NCTC 8198; test: Non-mycobacterial REMA assay; settings: Streptococcus pyogenes, NCTC8198, read-out: Minimum inhibitory concentration 95%
[17] = RAW264.7 macrophage, 100 µM, 96 h
[18] = mc^27902 pMV261, REMA, read-out: Mtb MIC95
[19] = values used for the SI, in brackets, […], read-out: MIC95
[20] = values used for the SI, […], read-out: MIC95

`CC[C@@H](CO)NCCN[C@@H](CC)CO` [EMB, Ethambutol] was tested. Which MIC [1] did it give?
The MIC was greater than 32 µg/mL.

And the MIC [2]?
Its MIC is greater than 32 µg/mL.

And the MIC [3]?
Its MIC is greater than 32 µg/mL.

And the MIC [4]?
The MIC was greater than 32 µg/mL.

What about the MIC [5] of the same molecule?
The MIC was greater than 32 µg/mL.

And the MIC [6]?
The MIC was greater than 32 µg/mL.

What about the MIC [7] of the same molecule?
Its MIC is greater than 32 µg/mL.

And the MIC [8]?
Its MIC is greater than 32 µg/mL.

And the viability at 100 µM [9]?
The viability at 100 µM was 95.2 ± 6%.

What about the viability at 100 µM [10] of the same molecule?
Its viability at 100 µM is 93.7 ± 2.7%.

And the MIC [11]?
The MIC was greater than 32 µg/mL.

What about the MIC [12] of the same molecule?
Its MIC is greater than 32 µg/mL.

And the viability at 100 µM [13, 17]?
Its viability at 100 µM is 88.5 ± 8.6%.

And the MIC [14, 18]?
Its MIC is 1.99 µg/mL.

What about the MIC [15] of the same molecule?
Its MIC is greater than 32 µg/mL.

What about the MIC [16] of the same molecule?
Its MIC is greater than 32 µg/mL.

For `CCc1cc(C(N)=S)ccn1` [ETH, ethionamide], which MIC [1] is on record?
Its MIC is greater than 32 µg/mL.

What about the MIC [2] of the same molecule?
The MIC was greater than 32 µg/mL.

What about the MIC [3] of the same molecule?
Its MIC is greater than 32 µg/mL.

What about the MIC [4] of the same molecule?
Its MIC is greater than 32 µg/mL.

What about the MIC [5] of the same molecule?
The MIC was greater than 32 µg/mL.

And the MIC [6]?
Its MIC is greater than 32 µg/mL.

And the MIC [7]?
Its MIC is greater than 32 µg/mL.

What about the MIC [8] of the same molecule?
The MIC was greater than 32 µg/mL.

And the viability at 100 µM [9]?
The viability at 100 µM was 92.7 ± 7%.

And the viability at 100 µM [10]?
Its viability at 100 µM is 90.5 ± 4.7%.

What about the MIC [11] of the same molecule?
The MIC was greater than 32 µg/mL.

What about the MIC [12] of the same molecule?
Its MIC is greater than 32 µg/mL.

What about the viability at 100 µM [13] of the same molecule?
The viability at 100 µM was 100 ± 5.6%.

What about the MIC ([14]; read-out: Mtb MIC95) of the same molecule?
The MIC was 1.05 µg/mL.

And the MIC [15]?
Its MIC is greater than 32 µg/mL.

And the MIC [16]?
Its MIC is greater than 32 µg/mL.

Which results are given for `NNC(=O)c1ccncc1` [INH, isoniazid]?
MIC [1]: > 32 µg/mL; MIC [2]: > 32 µg/mL; MIC [3]: > 32 µg/mL; MIC [4]: > 32 µg/mL; MIC [5]: > 32 µg/mL; MIC [6]: > 32 µg/mL; MIC [7]: > 32 µg/mL; MIC [8]: > 32 µg/mL; viability at 100 µM [9]: 97 ± 3.8%; viability at 100 µM [10]: 92.6 ± 1.2%; MIC [11]: > 32 µg/mL; MIC [12]: > 32 µg/mL; viability at 100 µM [13, 17]: 96.3 ± 2%; MIC [14, 18]: 0.04 µg/mL; MIC [15]: > 32 µg/mL; MIC [16]: > 32 µg/mL

What does the source list for `CC(=O)NC[C@H]1CN(c2ccc(N3CCOCC3)c(F)c2)C(=O)O1` [LZD, linezolid]?
MIC [1]: > 32 µg/mL; MIC [2]: 2.1 µg/mL (≈ 6.23 µM); MIC [3]: 31.1 µg/mL (≈ 92.1 µM); MIC [4]: > 32 µg/mL; MIC [5]: > 32 µg/mL; MIC [6]: > 32 µg/mL; MIC [7]: 23.7 µg/mL (≈ 70.3 µM); MIC [8]: 1.75 µg/mL (≈ 5.2 µM); viability at 100 µM [9]: 105 ± 5.1%; viability at 100 µM [10]: 103 ± 1.8%; MIC [11]: 0.921 µg/mL (≈ 2.73 µM); MIC [12]: > 32 µg/mL; viability at 100 µM [13, 17]: 38.3%; IC50 [13]: 16.2 µM; MIC [14, 18]: 0.91 µg/mL; MIC [14, 19]: 0.55 µg/mL; MIC [14, 20]: 1.63 µM; MIC [15]: 0.158 µg/mL (≈ 0.468 µM); MIC [16]: 0.543 µg/mL (≈ 1.61 µM)

What does the source list for `CO[C@H]1/C=C/O[C@@]2(C)Oc3c(C)c(O)c4c(O)c(c(/C=N/N5CCN(C)CC5)c(O)c4c3C2=O)NC(=O)/C(C)=C\C=C\[C@H](C)[C@H](O)[C@@H](C)[C@@H](O)[C@@H](C)[C@H](OC(C)=O)[C@@H]1C` [RIF, rifampicin]?
MIC [1]: > 12.8 µg/mL; MIC [2]: 0.08 µg/mL (≈ 0.0972 µM); MIC [3]: 1.36 µg/mL (≈ 1.66 µM); MIC [4]: > 12.8 µg/mL; MIC [5]: 3.03 µg/mL (≈ 3.69 µM); MIC [6]: 12.8 µg/mL (≈ 15.5 µM); MIC [7]: < 0.0125 µg/mL; MIC [8]: 0.045 µg/mL (≈ 0.0547 µM); viability at 100 µM [9]: 47.7 ± 3.2%; viability at 100 µM [10]: 40.7 ± 6.6%; MIC [11]: > 12.8 µg/mL; MIC [12]: > 12.8 µg/mL; viability at 100 µM [13, 17]: 66.3 ± 5%; MIC [14, 18]: 0.04 µg/mL; MIC [15]: 1.73 µg/mL (≈ 2.11 µM); MIC [16]: 6.16 µg/mL (≈ 7.48 µM)

What does the source list for `CC(C)=CCC/C(C)=C/CNCCNC1C2CC3CC(C2)CC1C3` (stereo not shown) [SQ109, N-Adamantan-2-yl-N’-((E)-3,7-dimethylocta-2,6-dienyl)ethane-1,2-diamine]?
MIC [1]: 16.8 µg/mL (≈ 50.9 µM); MIC [2]: > 32 µg/mL; MIC [3]: 20.7 µg/mL (≈ 62.7 µM); MIC [4]: > 32 µg/mL; MIC [5]: 17.4 µg/mL (≈ 52.5 µM); MIC [6]: > 32 µg/mL; MIC [7]: 16.9 µg/mL (≈ 51 µM); MIC [8]: > 32 µg/mL; viability at 100 µM [9]: 15.1 ± 4.1%; viability at 100 µM [10]: 40.2 ± 2.3%; MIC [11]: 21.1 µg/mL (≈ 63.8 µM); MIC [12]: > 32 µg/mL; viability at 100 µM [13, 17]: 61.1 ± 2.9%; IC50 [13]: > 100 µM; selectivity index (SI) ([13]; from RAW264.7 IC50 and Mtb MIC95): > 100; MIC [14, 18]: 0.33 µg/mL; MIC [14, 19]: 0.12 µg/mL; MIC [14, 20]: 0.36 µM; MIC [15]: 20.1 µg/mL (≈ 60.8 µM); MIC [16]: > 32 µg/mL
